Assay results reported in patent US12252472B1, “Barbituric acid derivatives, their preparation and use thereof as leukocyte transmigration inhibitors and for treating inflammatory diseases, autoimmune diseases and cancer” (BAR-ILAN UNIVERSITY, priority 2017, dated 2025).

Tests used:
[1] = test system: primary human monocytes on TNF-alpha-activated HUVECs; assay: Shear flow assay: monocyte adhesion and transmigration on TNFα-activated HUVECs; assay type: cell-based
Source text: A flow assay that allows detailed analysis of individual leukocyte interactions with endothelial cells (ECs), described in Bradfield et al. (Bradfield et al., 2016, PloS One, July 21; 11(7); Bradfield et al., 2007, Blood. October 1; 110(7):2545-55) was used for evaluation of the biological effects of the compounds according to the invention. This method allows the determination of the possible effects of the compounds on three major phases in leukocyte migration: the capture of free non-bound leukocytes by endothelium, migration of leukocytes on the endothelium surface, and transendothelial migration (transmigration) of human leukocytes through the HUVECs layer. Post transmigrational events can also be monitored by tracking individual leukocytes. […] Human umbilical vein endothelial cells (HUVECs) were cultivated in the plastic channel of the flow chamber, and human leukocyte were flowed over them using a calibrated pump, allowing monocyte capture, adhesion and migration to be monitored.
Human umbilical vein endothelial cells (HUVEC) were isolated by collagenase treatment of umbilical veins as previously described (Wall, R. T., et al., Factors influencing endothelial cell proliferation in vitro. J Cell Physiol, 1978. 96(2): p. 203-13) and maintained in M199 containing 20% fetal calf serum (FCS), 15 μg/mL endothelial cell growth supplement (Upstate Biotechnology, Lake Placid, NY), 100 μg/mL heparin, 50 μM hydrocortisone, and 10 μg/mL vitamin C. Cells were cultured up to a maximum of passage 5.
Peripheral blood mononuclear cells (PBMCs) were first isolated from blood of healthy donors followed by monocyte purification using a monocyte isolation kit (Miltenyi Biotec, Bergisch Gladbach, Germany). Purity and activity of monocytes were controlled by flow cytometry by labelling with anti-CD14 and anti-CD62L. Only populations of 90% or more double positive cells were used.
Flow assays were conducted as described in a previous study (Bradfield, P. F., et al., JAM-C regulates unidirectional monocyte transendothelial migration in inflammation. Blood, 2007. 110(7): p. 2545-55). HUVECs were cultured at 1×10^5 cells/slide on Ibidi 6-chamber slides (80606; Ibidi) before treatment with TNFα (500 U/mL) for 6-10 hours. An individual chamber outlet was then attached to a calibrated pump (74 900; Cole Partner, Vernon Hills, IL) and flow was generated by perfusing wash buffer (M199 with 0.15% BSA) or a monocyte suspension (2.5×10^6 cells/mL) over the HUVEC monolayer. The flow rate was representative of shear rates in small venules (0.05 Pa). Observations made using phase-contrast microscopy (Model: Axiovert 100; Objective: 20×/0.3 NA air; Carl Zeiss) were recorded using a high-resolution camera (D70; Nikon, Zurich, Switzerland). Individual images were recorded every 30 seconds with Nikon capture software (v4.2) and compiled into movie sequences using Adobe Photoshop (CS6) and Image J (v1.5d), allowing analysis of individual monocytes over large areas. The tested compounds, e.g. compounds of the general Formula (I), were maintained at the specified concentration in all wash buffers throughout the course of the experiment. The compounds were preincubated separately on both HUVECs and monocytes 15 minutes prior to flow co-culture. HUVEC monolayers were washed for 10 minutes prior to a compound wash-in step to allow for this preincubation period. The monocyte suspension was then perfused over HUVECs for 4 minutes followed by 20 to 60 minutes with wash buffer. Time-lapse recording was started upon monocyte first-contact with the monolayer. Monocyte adhesion data are presented as the total number of monocytes per unit field. Transmigration events are presented as a percentage of total monocytes captured from flow per unit field. All experiments were carried out using quadruplicate fields and are presented as a mean value (±SEM).
A timeline is shown to represent the positioning and timing of an individual monocyte during movie analysis (marked ‘Timeline’). […]

C57BL/6J mice = assay: Acute toxicology in naive mice (blood counts, biochemical tests, histology); assay type: in vivo, mouse
Experimental: 1% methyl cellulose in DDW solution was prepared by adding 0.5 g methyl cellulose into 50 ml of DDW and stirring the solution at the lowest possible speed (without making bubbles) overnight at room temperature. Formula 2 stock solution was prepared in concertation of 20 mg/ml at room temperature following shown below order of actions: • 1. 30 mg of the compound of Formula 2 was placed in the glass vial together with small magnet. • 2. 1.5 ml of 1% methylcellulose was added by circular (swirled) movement very slow. The entire surface of the vial was gently covered by the solvent and powder was not allowed to float above the liquid. • 3. The resulting suspension was stirred at the lowest possible speed up to 48 hours at room temperature. • 4. Intermediate Formula 2 stock solution at 10 mg/ml concentration was prepared by diluting 20 mg/ml stock solution 1:1 (v/v) with equal amount of DDW. DDW was added to the Formula 2 stock solution. The obtained suspension was stirred at the lowest possible speed for another hour at room temperature. • 5. Formula 2 working solution at 3 mg/ml was prepared by diluting intermediate stock solution (v/v) with DDW accordingly. The working suspension of Formula 2 was stirred at the low speed (˜80-100 rpm) for 30 minutes to 1 hour prior to use in animal experiments.
Eight experimental groups with 5 female 6-7 weeks old C57BL/6J mice each and one control group non treated (naïve) mice were used for the experiment. Mice were administered with daily application of the working suspension of the compound of Formula 2, prepared as described hereinabove, at 5, 10 and 15 mg/kg by intraperitoneal injection (IP) or at 10, 20 and 30 mg/kg by oral gavage (PO). […] Mice from all groups were euthanized with isoflurane 24 hours post last dose administration. Sampling for whole blood counts (WBC) and white blood differentiation: 200 μl of whole blood were collected into EDTA tubes (Greiner MiniCollect K3EDTA tubes). For comprehensive metabolic panel the rest of the whole blood (300-400 μl) was collected for the serum preparation. All blood tests were conducted in American Medical Labs, Herzeliah, Israel. Liver, spleen, lungs, heart and kidneys were collected from each mouse placed to vials with 4% buffered formalin following paraffin embedding and sectioning. Sections from each organ of each animal were stained with H&E and histological evaluation of the tissue was performed.

[2] = 5, 10, 15 mg/kg IP or 10, 20, 30 mg/kg PO, daily

With `COC(=O)c1ccc(COc2c(C=C3C(=O)NC(=O)NC3=O)cccc2C(C)(C)C)cc1` [Formula 2, methyl 4-((2-(tert-butyl)-6-((2,4,6-trioxotetrahydropyrimidin-5(2H)-ylidene)methyl)phenoxy)methyl) benzoate] the monocyte transmigration ([1]; 30 μM) was “completely blocked”, the Monocyte adhesion ([1]; 30 μM, flow 0.05 Pa for 30 minutes) was “unaffected” and the “Level of Transmigration Blockage (%)” value ([1]; 30 μM, monocytes on TNF-activated HUVECs under flow 0.05 Pa) was 100%. For the same compound, the IC50 ([1]; Homo sapiens, HUVEC, flow 0.05 Pa, n=3) was 2400 nM, the Emax ([1]; Homo sapiens, HUVEC, monocyte transmigration inhibition, read-out: maximal efficacy) was 48% and the “concentration below which not active on monocyte transmigration” value ([1]; dose response, 100 μM to 3 nM) was “below 300 nM”. The monocyte transmigration ([1]; dose response, 3 μM) was “partial blocking”, the monocyte transmigration ([1]; dose response, 30-100 μM) was “full blocking” and the “time of the maximal effect” value ([1]; monocyte transmigration, read at 10, 15, 20 and 25 minutes) was 20 min. The “microstructure of lungs, heart, liver, spleen and kidney tissues” value (C57BL/6J mice; 3 doses IP) was “no effect”, the “microstructure of lungs, heart, liver, spleen and kidney tissues” value (C57BL/6J mice; 3 doses PO) was “no effect” and the “blood levels of calcium, phosphorus, sodium, potassium, chloride and hemolytic index” value (C57BL/6J mice; 3 doses PO or 3 doses IP, n=5) was “no effect”. For the same compound, the “blood levels of creatinine, urea, total protein, albumin, globulin, glucose” value (C57BL/6J mice; 3 doses PO or 3 doses IP, n=5) was “no effect”, the “blood levels of total billirubin, alkaline phosphatase, SGOT, SGPT and cholesterol” value (C57BL/6J mice; 3 doses PO or 3 doses IP, n=5) was “no effect” and the “different subtypes of red blood cells, platelets and hematocrit” value (C57BL/6J mice; 3 doses PO or 3 doses IP, n=5) was “no effect”. The “different subtypes of white blood cells” value (C57BL/6J mice; 3 doses PO or 3 doses IP, n=5) was “no effect”, the tested metabolic values (C57BL/6J mice; [2]) was “in normal range” and the “whole blood counts and white cells differentiation” value (C57BL/6J mice; [2]) was “no significant changes”. The “tissues morphology, microscopic evaluation” value (C57BL/6J mice; liver, spleen, lungs, heart, kidneys, IP and PO) was “no changes”.
